system: G. duodenalis BRIS/91/HEPU/1279; assay: Primary Giardia screen at 10 µM (live-cell imaging, automated counting); type: cell-based, Giardia duodenalis; details: 24 h
Procedure, shortened: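 One concentration, 10 μM, is screened per compound in singlicate under microaerophilic gas (3% O2, 5% CO2, N2). Inhibition comes from automated image-based counts at 24 and 48 h, relative to 0.2% DMSO controls.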

Row | SMILES | Average % Inhibition 24h
1 | Cc1cc(N2C(=O)C(O)=C(C(=O)c3ccc(Cl)cc3)C2c2ccc([N+](=O)[O-])cc2)no1 (centres unmarked) [SN00780175] | 6.4%

same assay, conditions: 24 h, first singlicate assay

Row | SMILES | % Inhibition n=1 24h
2 | Cc1cc(N2C(=O)C(O)=C(C(=O)c3ccc(Cl)cc3)C2c2ccc([N+](=O)[O-])cc2)no1 (centres unmarked) [SN00780175] | 12.8%

same assay, conditions: 24 h, re-assessment

Row | SMILES | % Inhibition n=2 24h
3 | Cc1cc(N2C(=O)C(O)=C(C(=O)c3ccc(Cl)cc3)C2c2ccc([N+](=O)[O-])cc2)no1 (centres unmarked) [SN00780175] | 0.0%

same assay, conditions: 48 h

Row | SMILES | Average % Inhibition 48h
4 | Cc1cc(N2C(=O)C(O)=C(C(=O)c3ccc(Cl)cc3)C2c2ccc([N+](=O)[O-])cc2)no1 (centres unmarked) [SN00780175] | 29.6%

same assay, conditions: 48 h, first singlicate assay

Row | SMILES | % Inhibition n=1 48h
5 | Cc1nn(-c2ccccc2)c2c1C(C(=O)NC1CCCC1)N(c1ccc(F)cc1F)C(=O)CS2 (centres unmarked) [SN00791377] | 1.8%
6 | O=C(c1ccc(Cl)c(S(=O)(=O)NCC2CCCO2)c1)N1CC=C(c2ccccc2)CC1 (centres unmarked) [SN00769948] | 6.8%
7 | O=C(c1noc2ncnc(N3CCCC3)c12)N1CCN(c2ccccn2)CC1 [SN00791654] | 7.3%
8 | O=C(C1CCCN(S(=O)(=O)c2ccccc2)C1)N1CCCC(C(F)(F)F)C1 (centres unmarked) [SN00774985] | 7.6%
9 | CCOc1ccccc1CNC(=O)c1nc(C(C)C)oc1C [SN00802425] | 24.0%
10 | O=C(Nc1cccc(-c2noc(C3CCOCC3)n2)c1)C1CC1 [SN00772921] | 0.0%
11 | CC1CCN(C(=O)c2n[nH]c(=O)c3ccccc23)CC1 [SN00774511] | 0.0%
12 | O=C1OCCN1CCCN1CCCC(c2nc3ccccc3o2)C1 (centres unmarked) [SN00780555] | 0.0%
13 | Cc1ccc(S(=O)(=O)N2CCCN(C(=O)c3c[nH]nc3-c3ccc(F)cc3)CC2)cc1 [SN00778123] | 40.4%
14 | Cc1ccc(C)c(NC(=O)N2CCC(c3c[nH]c4ncccc34)CC2)c1 [SN00780701] | 0.0%
15 | CCCN1C(=O)c2cc(C(=O)Nc3ccccc3OC)ccc2C1Nc1ccccc1OC (centres unmarked) [SN00785171] | 21.9%
16 | Cc1nc(CN2CCCNCC2)oc1C [SN00778765] | 0.0%
17 | Cc1ccccc1S(=O)(=O)N1CCC2(CC1)Nc1ccc(Cl)cc1-n1cccc12 [SN00789223] | 20.1%
18 | CSc1ccc(NC(=O)c2cn(C)c3ncccc23)cc1 [SN00799688] | 9.5%
19 | CCn1cc(C(=O)Nc2ccccc2O)c(=O)c2cc(F)c(N3CCN(C(C)=O)CC3)cc21 [SN00802927] | 0.0%
20 | COc1cccc(-n2ccn3cc(-c4ccc(OC)c(OC)c4)nc3c2=O)c1 [SN00796018] | 36.9%
21 | Cc1nc2sccn2c1-c1nc(-c2ccccc2)c(C(=O)c2ccc3c(c2)NC(=O)CO3)s1 [SN00776123] | 7.0%
22 | O=C(Cn1c(=O)c2nncn2c2ncccc21)N1CCN(c2cccc(Cl)c2)CC1 [SN00799155] | 17.9%
23 | CC(C)CCNC(=O)C1(C)CCc2ccccc2C(=O)N1Cc1ccccc1F (centres unmarked) [SN00785390] | 14.6%
24 | CC(C)(C)c1ccc(C(=O)N2CCC3(CC2)N=C(c2cccc(Cl)c2)C(=O)N3)cc1 [SN00792200] | 32.1%
25 | COC(=O)c1c(NC(=O)Cn2nc(C(F)(F)F)c(Br)c2C)sc2c1CCCC2 [SN00794352] | 23.2%
26 | O=C(C1CCCN(c2cnccn2)C1)N1CCN(Cc2cccs2)CC1 (centres unmarked) [SN00769722] | 17.2%
27 | O=S(=O)(c1cccc2cccnc12)N1CCc2nc(-c3ccc(F)cc3)ncc2C1 [SN00799070] | 3.1%
28 | COCCS(=O)(=O)N1CCCC1Cn1ccnc1 (centres unmarked) [SN00782604] | 0.0%
29 | CSCCC(NS(=O)(=O)c1ccc(C)cc1)C(=O)Nc1nc(C)c(-c2ccccn2)s1 (centres unmarked) [SN00779415] | 0.0%
30 | COc1cc(-c2noc(-c3cc(-c4ccco4)n[nH]3)n2)cc(OC)c1OC [SN00791289] | 2.3%

Row | SMILES | % Inhibition n=1 48h
31 | Cc1cc(C2CCCN(C(=O)CCc3cnn(C)c3)C2)n[nH]1 (centres unmarked) [SN00782611] | 7.8%
32 | Cc1cc2nc(Sc3nnnn3CC3CCCO3)c3ccccc3n2n1 (centres unmarked) [SN00771233] | 16.5%
33 | Cc1sc(-n2cccc2)c(C(=O)NC2CCCCCC2)c1C [SN00776382] | 0.0%
34 | O=C(CCn1ccn2nc(-c3ccccc3Cl)cc2c1=O)NCc1ccc(F)cc1 [SN00799415] | 0.0%
35 | COc1ccc(NC(=O)c2cnc(N3CCN(CC(=O)N4CCCC4)CC3)nc2N)cc1 [SN00798764] | 0.0%
36 | Cc1noc2ncnc(N3CCCC(C(=O)NC4CCCCCC4)C3)c12 (centres unmarked) [SN00788598] | 0.0%
37 | O=C(NCc1ccccc1Cl)[C@H]1[C@H]2C(=O)N(Cc3cccs3)C[C@]23C=C[C@H]1O3 (relative stereo) [SN00784242] | 22.4%
38 | OC(CN1CCCN(C2CC2)CC1)c1ccccc1C(F)(F)F (centres unmarked) [SN00782563] | 5.9%
39 | Cc1ccc(NS(=O)(=O)c2cn(C)c(C)n2)c(Br)c1 [SN00792660] | 25.8%
40 | Cn1c(=O)c2c(-c3ccccc3)c(Nc3ccccc3)oc2n(C)c1=O [SN00788641] | 9.4%
41 | Cc1ccc(S(=O)(=O)Nc2cc3c(cc2NCc2ccccc2)n(C)c(=O)n3C)cc1 [SN00784759] | 14.3%
42 | CCOc1ccc(-n2c(=O)c3sc4ncccc4c3n(CC(=O)NC3CCCCC3)c2=O)cc1 [SN00790499] | 13.5%
43 | O=C(NCC1CC1)c1nnn(-c2ccccc2)c1-c1ccncc1 [SN00796358] | 0.0%
44 | CCN1CCCN(c2ncnc3c2c(Br)nn3C)CC1 [SN00782469] | 4.4%
45 | Cc1cccc(CN2CCc3c(cc(C(=O)NC(C)(C)C)n3C)C2)c1 [SN00799594] | 0.0%
46 | Cc1ccc(-n2nc(C)c3sc(N4CCCC(C(=O)NCc5ccc6c(c5)OCO6)C4)nc32)cc1 (centres unmarked) [SN00796247] | 0.0%
47 | CN1C(=O)CC(C(=O)NNC(=O)COc2ccccc2-c2ccccc2)C1c1cccnc1 (centres unmarked) [SN00780071] | 9.4%
48 | Cc1nccc2[nH]c(=O)c(C(=O)NCCCN(C)C3CCCCC3)cc12 [SN00794671] | 0.0%
49 | COc1ccc(C(C)(C)C)cc1S(=O)(=O)N1CCN(c2nc(C)cc(N3CCOCC3)n2)CC1 [SN00793559] | 5.9%
50 | CCCCn1nnnc1CN1CCCC1Cn1cncn1 (centres unmarked) [SN00782373] | 0.0%
51 | CC12CC(c3ccccc3O1)N(C(=O)c1cccc(F)c1)C(=O)N2c1ccccc1 (centres unmarked) [SN00784677] | 0.0%
52 | Cc1nc(CN2CCN(C(=O)c3c(C)c(C)n[nH]c3=O)CC2)cs1 [SN00780594] | 0.0%
53 | C=CCn1c(C)c(CC(=O)Nc2cc(F)ccc2C)c(=O)n2nc(-c3ccccc3)nc12 [SN00786890] | 40.6%
54 | CC(C)c1csc(-c2ccc(S(=O)(=O)NCc3ccc(Cl)cc3)s2)n1 [SN00798864] | 0.0%
55 | CCc1ncc2c(n1)CN(Cc1csc(-c3ncccn3)n1)CC2 [SN00807940] | 9.1%
56 | CCCN(C)C(=O)Cn1c(=O)n(-c2ccc(F)cc2)c(=O)c2ccccc21 [SN00802614] | 32.9%

Row | SMILES | % Inhibition n=1 48h
57 | CCn1ccc(C(=O)Nc2ccc3c(c2)Sc2ncccc2C(=O)N3C)n1 [SN00800580] | 19.0%
58 | O=C(Nc1ccc(N2CCn3c(nc4cc(Cl)ccc43)C2)cc1)NC1CCCCC1 [SN00786562] | 10.0%
59 | CCCCNc1ncccc1-c1nc(-c2ccc(C)cc2)no1 [SN00786331] | 25.3%
60 | CCCCn1c(=O)[nH]c(=O)c2c1nc(-c1ccc(-c3ccc([N+](=O)[O-])cc3Cl)o1)n2C [SN00775787] | 19.8%
61 | CN(C)CC1CN(S(=O)(=O)C2CC2)CC12CCOCC2 (centres unmarked) [SN00801268] | 16.1%
62 | Cc1nc(-c2ccc3c(c2)n(CC(=O)NC2CCN(Cc4ccccc4)CC2)c(=O)n3C(C)C)no1 [SN00798376] | 5.7%
63 | Cc1ccc(C(=O)N2CCCN(S(C)(=O)=O)CC2)c(=O)[nH]1 [SN00807837] | 19.8%
64 | CCOc1cc2c(cc1OCC)-n1cccc1C(c1cccc([N+](=O)[O-])c1)NC2 (centres unmarked) [SN00783996] | 10.3%
65 | COc1ccc(-n2nc3c(c2NC(=O)c2ccc([N+](=O)[O-])cc2)CS(=O)(=O)C3)cc1 [SN00802781] | 12.4%
66 | COc1cccc(CNC(=O)C2CCCN(c3nccc4c(C)nn(C)c34)C2)c1 (centres unmarked) [SN00797953] | 0.0%
67 | O=C(c1nc2nc(-c3ccco3)cc(C(F)(F)F)n2n1)N1CCCCCC1 [SN00794256] | 19.8%
68 | CCOC(=O)c1cc(-c2ccccc2)n(CCC(=O)N2CCn3c2nc2ccccc23)c1C [SN00794728] | 10.1%
69 | Cc1cc(N2C(=O)C(O)=C(C(=O)c3ccc(Cl)cc3)C2c2ccc([N+](=O)[O-])cc2)no1 (centres unmarked) [SN00780175] | 59.1%
70 | c1ccc(-c2cc(CN3CCOC(Cn4cncn4)C3)on2)cc1 (centres unmarked) [SN00778747] | 6.8%
71 | COC(=O)c1ccc(F)c(S(=O)(=O)NC2(c3nc(C)cs3)CCC2)c1 [SN00772601] | 27.1%
72 | O=C(C1CCCN1S(=O)(=O)c1ccc(Br)cc1)N1CCCCC1 (centres unmarked) [SN00774966] | 3.8%
73 | Cc1cccc(Cn2c(CNS(=O)(=O)c3ccccc3)nc3cccnc32)c1 [SN00793267] | 9.9%
74 | COc1ccc(C)cc1NC(=O)Nc1c(-c2ccncc2)[nH]c2c(Cl)cccc12 [SN00795853] | 0.0%
75 | COc1ccc(NC(=O)N2CCC3(CC2)Nc2cc(C)ccc2-n2cccc23)cc1 [SN00793004] | 10.6%
76 | Cc1ccc(C2(C)NC(=O)N(Cc3ncc(-c4ccccc4)o3)C2=O)cc1 (centres unmarked) [SN00774002] | 0.0%
77 | COc1ccc(S(=O)(=O)N2CC=C(C(=O)Nc3ccc(Cl)cc3)CC2)cc1 [SN00785473] | 0.0%
78 | CNC1(c2nnnn2-c2ccc(OC)cc2)CCCCC1 [SN00794158] | 11.8%
79 | O=S(=O)(c1ccc(Cl)cc1)N1CCC(c2nc(-c3c(Cl)cccc3Cl)no2)CC1 [SN00779695] | 11.2%
80 | CCn1c(CN2Cc3ccccc3C[C@H]2C(N)=O)nc2cc(S(=O)(=O)N3CCCCC3)ccc21 [SN00773766] | 10.0%
81 | CC1(c2ccco2)NC(=O)N(CC(=O)c2ccccc2)C1=O (centres unmarked) [SN00771276] | 12.8%
82 | COCCN1C(=O)c2oc3ccccc3c2OCC1(C)C(=O)NCc1ccccc1OC (centres unmarked) [SN00791365] | 21.5%

same assay, conditions: 48 h, re-assessment

Row | SMILES | % Inhibition n=2 48h
83 | Cc1cc(N2C(=O)C(O)=C(C(=O)c3ccc(Cl)cc3)C2c2ccc([N+](=O)[O-])cc2)no1 (centres unmarked) [SN00780175] | 0.0%

— publication PMC9775191, “A Subset Screen of the Compounds Australia Scaffold Library Identifies 7-Acylaminodibenzoxazepinones as Potent and Selective Hits for Anti-Giardia Drug Discovery” (Biomedicines, 2022)
